Results reported in article PMC9227578, “Insight into the Molecular Mechanism for the Discrepant Inhibition of Microcystins (MCLR, LA, LF, LW, LY) on Protein Phosphatase 2A” (Toxins, 2022).

System: PP2A
Assay: colorimetric protein phosphatase (PP2A) inhibition assay
Assay type: biochemical
Protocol: The biological toxicity of the typical MCs was evaluated by a colorimetric protein phosphatase inhibition assay modified by Zong et al.. First, PP2A was diluted to 5 U/mL with a buffer solution (50 mM Tris-HCl pH 7.4, 2.0 mM dithiothreitol, 1 mM MnCl2) and 1.0 g/L bovine serum albumin. Then, 10 μL of PP2A and 100 μL of test samples were mixed in a 96-well polystyrene microplate. With gentle shaking, the microtiter plates were kept at 25.0 °C for 15 min, and 90 μL p-nitrophenyl disodium orthophosphate (5 mM) was added. After 1 h, the absorbances at 405 nm were measured in a microplate reader. The inhibition of the test samples on PP2A was calculated by the formula of IPP2A (%) = (Acontrol − Asample)/Acontrol × 100%. Acontrol and Asample were the absorbance of the reference sample ([…]) and the test sample at 405 nm, respectively.

Substance	inhibition sequence on PP2A	inhibition effect on PP2A
MCLA	MCLR > MCLW > MCLA > MCLF > MCLY	–
MCLF	MCLR > MCLW > MCLA > MCLF > MCLY	–
MCLR	MCLR > MCLW > MCLA > MCLF > MCLY	much higher inhibition effect than other MCs
MCLY	MCLR > MCLW > MCLA > MCLF > MCLY	lower inhibition
